# According to the SangsterLogP compilation:
# Assay: method code SF-AS, from DOI: 10.1111/j.2042-7158.1991.tb06664.x, PMID: 1675277
row,Structure (SMILES),logP
1,COc1cc(OC)c(S(=O)(=O)c2ccc(N)cc2)c(OC)c1,1.03
2,CCN(CC)C(=O)c1ccc(S(=O)(=O)c2ccc(N)cc2)cc1,1.44
3,Nc1ccc(S(=O)(=O)c2ccccc2N)cc1,1.56
4,Nc1ccc(S(=O)(=O)c2c(O)cc(O)cc2O)cc1,1.53
5,CCNc1ccc(S(=O)(=O)c2ccc(N)cc2)cc1,1.98
6,Nc1ccc(S(=O)(=O)c2ccc(O)cc2)cc1,1.57
7,CCN(CC)c1ccc(S(=O)(=O)c2ccc(N)cc2)cc1,3
8,Nc1ccc(S(=O)(=O)c2cccc(N)c2)cc1,1.03
9,Nc1ccc(S(=O)(=O)c2ccc(NO)cc2)cc1,0.88
10,COc1ccc(S(=O)(=O)c2ccc(N)cc2)cc1,1.96
11,Nc1ccc(S(=O)(=O)c2ccc(Cl)cc2Cl)cc1,3.12
12,Nc1ccc(S(=O)(=O)c2ccc(O)cc2O)cc1,1.29
13,Nc1ccc(S(=O)(=O)c2ccc(Cl)cc2)cc1,2.57
14,Cc1cc(C)c(S(=O)(=O)c2ccc(N)cc2)c(C)c1,3.06
15,CC(=O)c1ccc(S(=O)(=O)c2ccc(N)cc2)cc1,1.67
16,NC(=O)c1ccc(S(=O)(=O)c2ccc(N)cc2)cc1,0.9
17,N#Cc1ccc(S(=O)(=O)c2ccc(N)cc2)cc1,1.63
18,Nc1ccc(S(=O)(=O)c2ccc(F)cc2)cc1,2.01
19,Nc1ccc(S(=O)(=O)c2ccc(N)cc2N)cc1,0.38
20,Cc1ccc(S(=O)(=O)c2ccc(N)cc2)cc1,2.4

# Assay: not given
row,Structure (SMILES),logP
1,NS(=O)(=O)c1ccc(S(N)(=O)=O)cc1,-0.7
2,Nc1ccc(S(=O)(=O)c2ccc([N+](=O)[O-])cc2[N+](=O)[O-])cc1,1.84
3,COC(=O)c1ccc(S(=O)(=O)c2ccc(N)cc2)cc1,2.13
4,CN(C)c1ccc(S(=O)(=O)c2ccc(N)cc2)cc1,1.93
5,N#Cc1cccc(S(N)(=O)=O)c1,0.27
6,Cc1ccc(S(=O)(=O)c2ccc(N)cc2)c(C)c1,2.69
7,COc1ccc(S(=O)(=O)c2ccc(N)cc2)c(OC)c1,1.65
8,Nc1ccc(S(=O)(=O)c2ccc([N+](=O)[O-])cc2)cc1,2.03
9,Cc1ccc(S(N)(=O)=O)cc1,0.83
10,COc1cccc(S(N)(=O)=O)c1,0.65
11,NC(=O)c1cccc(S(N)(=O)=O)c1,-0.55
12,CC(=O)c1ccc(S(N)(=O)=O)cc1,0.31
13,N#Cc1ccc(S(N)(=O)=O)cc1,0.4
14,NS(=O)(=O)c1cccc([N+](=O)[O-])c1,0.6
15,NC(=O)c1ccc(S(N)(=O)=O)cc1,-0.66
16,Nc1ccc(S(=O)(=O)c2ccc(Br)cc2)cc1,3.15
17,NS(=O)(=O)c1ccccc1,0.33
18,Nc1ccc(S(=O)(=O)c2ccccc2)cc1,1.84
